Measured values from patent US20040116420A1 (priority 2001, published 2004).

Columns and labels:
Vero cells = test: Cytotoxicity, Vero cells, Alamar Blue; type: cell-based; conditions: 25 μM, 20 hours
Outline: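 Living-cell ratio versus untreated control was read by Alamar Blue absorbance after about 6 h of dye incubation. Before that, Vero cells had received 25 μM test compound in 2% FBS-DMEM for 20 hours at 37 °C under 5% CO2.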

HSV-1 = test: Antiviral activity, HSV-1 in Vero cells, plaque method; type: cell-based; conditions: Human alphaherpesvirus 1, 20 hours, 90% inhibition of plaque formation
Outline: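 This is a virus-yield read-out. The culture medium was frozen at −80° C and thawed, and the plaques it formed were counted. It came from Vero monolayers infected with 50,000 pfu HSV-1 and then exposed to the compound for 20 h at 37° C. EC90 is the concentration inhibiting 90% of plaque formation relative to the untreated infected control.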

HSV-1 protease = target: T1, HSV-1 protease (Human herpesvirus 1, UniProt P10210); test: Enzymatic assay for HSV-1 protease (assembly) inhibitor, fluorescence polarization; type: biochemical; conditions: read-out: HSV-1 Enzyme inhibition IC50
T1 construct: 6xHis (N); made in house; host or cells: baculovirus expression system
T1 sequence (P10210 1-247): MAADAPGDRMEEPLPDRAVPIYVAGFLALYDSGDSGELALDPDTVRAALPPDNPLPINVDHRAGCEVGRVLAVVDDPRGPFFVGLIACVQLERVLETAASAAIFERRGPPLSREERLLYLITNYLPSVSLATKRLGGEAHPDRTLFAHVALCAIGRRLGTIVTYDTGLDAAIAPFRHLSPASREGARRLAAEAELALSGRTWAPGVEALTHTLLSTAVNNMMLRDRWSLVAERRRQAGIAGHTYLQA
Outline: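 Fluorescence polarization read-out: after avidin stop, cleavage of a biotinylated DTAF-labelled release-site peptide by recombinant N-His6 HSV-1 protease was compared with no-inhibitor wells. Enzyme and compound were preincubated 30 min, then substrate reacted 60 min, all at room temperature, pH 7.4 citrate buffer with TCEP.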

SMILES	EC90 (HSV-1) [µM]	IC50 (HSV-1 protease) [nM]	Cell viability (% of control) (Vero cells) [%]
Cc1c(NC(=O)OC(C)(C)C)ccc2nc(N(C)[C@@H](Cc3ccccc3)C(=O)NCCc3ccccn3)oc(=O)c12 [Compound No.81, (5-Methyl-2-{methyl-[2-phenyl-1S-(2-pyridin-2-yl-ethylcarbamoyl)-ethyl]-amino}-4-oxo-4H-benzo[d][1,3]oxazin-6-yl)-carbamic acid tert-butyl ester]	9.5	1700	49.7
Cc1c(NC(=O)c2ccc([N+](=O)[O-])o2)ccc2nc(NC(C)(C)C(=O)N(C)CCc3ccccn3)oc(=O)c12 [Compound No.177, 5-Nitro-furan-2-carboxylic acid (5-methyl-2-{1-methyl-1-[methyl-(2-pyridin-2-yl-ethyl)-carbamoyl]-ethylamino}-4-oxo-4H-benzo[d][1,3]oxazin-6-yl)-amide]	> 12.5	6000	38.0
Cc1c(NC(=O)OC(C)(C)C)ccc2nc(N(C)[C@@H](Cc3ccccc3)C(=O)N(C)CCc3cccnc3)oc(=O)c12 [Compound No.84, [5-Methyl-2-(methyl-{1S-[methyl-(2-pyridin-3-yl-ethyl)-carbamoyl]-2-phenyl-ethyl}-amino)-4-oxo-4H-benzo[d][1,3]oxazin-6-yl]-carbamic acid tert-butyl ester]	11	1700	37.6
Cc1c(NC(=O)c2ccco2)ccc2nc(NC(C)(C)C(=O)N(C)CCc3ccccn3)oc(=O)c12 [Compound No.139, Furan-2-carboxylic acid (5-methyl-2-{1-methyl-1-[methyl-(2-pyridin-2-yl-ethyl)-carbamoyl]-ethylamino}-4-oxo-4H-benzo[d][1,3]oxazin-6-yl)-amide]	> 12.5	1400	90.7
Cc1c(NC(=O)OC(C)(C)C)ccc2nc(N3CCC[C@H]3C(=O)NCc3ccccn3)oc(=O)c12 [Compound No.86, (5-Methyl-4-oxo-2-{2S-[(pyridin-2-ylmethyl)-carbamoyl]-pyrrolidin-1-yl}-4H-benzo[d][1,3]oxazin-6-yl)-carbamic acid tert-butyl ester]	> 12.5	1100	94.6
Cc1c(NC(=O)CCCNC(=O)c2ccc(N(C)C)cc2)ccc2nc(NC(C)(C)C(=O)N(C)CCc3ccccn3)oc(=O)c12 [Compound No.224, 4-Dimethylamino-N-[3-(5-methyl-2-{1-methyl-1-[methyl-(2-pyridin-2-yl-ethyl)-carbamoyl]-ethylamino}-4-oxo-4H-benzo[d][1,3]oxazin-6-ylcarbamoyl)-propyl]-benzamide]	> 12.5	400	107.5
Cc1c(NC(=O)OC(C)(C)C)ccc2nc(N3CCC[C@H]3C(=O)NCCc3ccccn3)oc(=O)c12 [Compound No.89, {5-Methyl-4-oxo-2-[2S-(2-pyridin-2-ylethylcarbamoyl)-pyrrolidin-1-yl]-4H-benzo[d][1,3]oxazin-6-yl}-carbamic acid tert-butyl ester]	> 12.5	1400	92.6

More lines, main results first:

EC90 (HSV-1) [µM]	IC50 (HSV-1 protease) [nM]	SMILES	Cell viability (% of control) (Vero cells) [%]
5.8	900	Cc1c(NC(=O)c2sc3ccccc3c2Cl)ccc2nc(NC(C)(C)C(=O)N(C)CCc3ccccn3)oc(=O)c12 [Compound No.178, 3-Chloro-benzo[b]thiophene-2-carboxylic acid (5-methyl-2-{1-methyl-1-[methyl-(2-pyridin-2-yl-ethyl)-carbamoyl]-ethylamino}-4-oxo-4H-benzo[d][1,3]oxazin-6-yl)-amide]	28.1
> 12.5	1900	Cc1c(NC(=O)c2scc(S(=O)(=O)C(C)C)c2Cl)ccc2nc(NC(C)(C)C(=O)N(C)CCc3ccccn3)oc(=O)c12 [Compound No.180, 3-Chloro-4-(propane-2-sulfonyl)-thiophene-2-carboxylic acid (5-methyl-2-{1-methyl-1-[methyl-(2-pyridin-2-yl-ethyl)-carbamoyl]-ethylamino}-4-oxo-4H-benzo[d][1,3]oxazin-6-yl)-amide]	87.4
10.2	1600	Cc1c(NC(=O)c2ccccc2F)ccc2nc(NC(C)(C)C(=O)N(C)CCc3ccccn3)oc(=O)c12 [Compound No.147, 2-Fluoro-N-(5-methyl-2-{1-methyl-1-[methyl-(2-pyridin-2-yl-ethyl)-carbamoyl]-ethylamino}-4-oxo-4H-benzo[d][1,3]oxazin-6-yl)-benzamide]	70.2
10.2	2100	Cc1c(NC(=O)c2ccc(CCl)cc2)ccc2nc(NC(C)(C)C(=O)N(C)CCc3ccccn3)oc(=O)c12 [Compound No.171, 4-Chloromethyl-N-(5-methyl-2-{1-methyl-1-[methyl-(2-pyridin-2-yl-ethyl)-carbamoyl]-ethylamino}-4-oxo-4H-benzo[d][1,3]oxazin-6-yl)-benzamide]	16.1
> 12.5	2200	Cc1c(NC(=O)OC(C)(C)C)ccc2nc(N(C)[C@@H](C)C(=O)N(C)Cc3ccccn3)oc(=O)c12 [Compound No.75, (5-Methyl-2-{methyl-[1S-(methyl-pyridin-2-ylmethyl-carbamoyl)-ethyl]-amino}-4-oxo-4H-benzo[d][1,3]oxazin-6-yl)-carbamic acid tert-butyl ester]	93.1
12.4	1300	Cc1c(NC(=O)c2cccc3ccccc23)ccc2nc(NC(C)(C)C(=O)N(C)CCc3ccccn3)oc(=O)c12 [Compound No.190, Naphthalene-1-carboxylic acid (5-methyl-2-{1-methyl-1-[methyl-(2-pyridin-2-yl-ethyl)-carbamoyl]-ethylamino}-4-oxo-4H-benzo[d][1,3]oxazin-6-yl)-amide]	74.5
> 12.5	16900	Cc1c(NC(=O)OC(C)(C)C)ccc2nc(N3CCC[C@H]3C(=O)N(C)Cc3ccccn3)oc(=O)c12 [Compound No.90, {5-Methyl-2-[2S-(methyl-pyridin-2-ylmethyl-carbamoyl)-pyrrolidin-1-yl]-4-oxo-4H-benzo[d][1,3]oxazin-6-yl}-carbamic acid tert-butyl ester]	93.6
6.1	2700	Cc1c(NC(=O)OC(C)(C)C)ccc2nc(N[C@H](C(=O)N(C)CCc3ccncc3)C(C)C)oc(=O)c12 [Compound No.53, (5-Methyl-2-{2-methyl-1S-[methyl-(2-pyridin-4-yl-ethyl)-carbamoyl]-propylamino}-4-oxo-4H-benzo[d][1,3]oxazin-6-yl)-carbamic acid tert-butyl ester]	106.0
9.3	600	Cc1c(NC(=O)OC(C)(C)C)ccc2nc(NC(C)(C)C(=O)N(C)CCc3ccncc3)oc(=O)c12 [Compound No.51, (5-Methyl-2-{1-methyl-1-[methyl-(2-pyridin-4-yl-ethyl)-carbamoyl]-ethylamino}-4-oxo-4H-benzo[d][1,3]oxazin-6-yl)-carbamic acid tert-butyl ester]	106.0
